Results from patent US10669588B2, “Methods for sub-typing and treating cancer” (HI-STEM GGMBH im Deutschen, priority 2014, dated 2020).
Like-named read-outs stand apart in the source and are kept apart here.

What was measured:
exocrine-like PACO cells = format: cell-based, human
Experimental: (§1) Quantitative results were analyzed by one-way analysis of variance (multiple groups/grouped analysis) and Student's t test (two groups), using GraphPad Prism (Graph Pad Software). Survival analysis was performed using Mantel-Cox log-rank test as well as Cox proportional hazards multivariate analysis using the Statistical Package for the Social Sciences (IPM SPSS software). Additionally, Pearson chi-squared test was used for comparative data analysis, using SPSS. We considered p<0.05 (two-sided) as statistically significant. For GSEA a False Discovery Rate (FDR) of <0.2 was considered statistically significant. Treatment data were evaluated by determining the activity area (Barretina et al., 2012) from each dose response curve by adding max (100-mean response, 0) for every concentration. Activity areas from the same biological replicate were compared by paired t-test. Calculations were performed in R Version 3.1.0 (Chee et al., 2013).

CYP3A5 [1] = experiment: CYP3A5 mRNA (qRT-PCR) and protein (Western blot) expression in PACO cells after drug exposure; format: cell-based, human; details: for CYP3A5 mRNA expression in drug-resistant cell lines: PACO2, PACO7 after 8 weeks of increasing doses, vs control cell lines; for CYP3A5 expression in response to drug: QM-PDA (PACO9) and classical (PACO2) PACO lines, 10 μM drug; for CYP3A5 mRNA and protein expression in response to drug: exocrine-like PACO10, PACO14, 10 μM drug vs basal level
CYP3A5 [2] = experiment: Measurement of conversion of erlotinib and dasatinib in cell supernatant (LC-MS/MS); format: in vitro ADME, human; details: 1 μM and 10 μM; for metabolism of drug in the absence of CYP3A5: CYP3A5 siRNA transfected exocrine-like PACO14, PACO18; for conversion of drug (disappearance of unmodified structure from supernatant): exocrine-like PACO14, PACO18, six time points
Experimental: In brief, the amount of unmodified dasatinib and erlotinib in the supernatant of cells was monitored by quantitative LC-MS/MS analysis on an AB Sciex QTrap 5500 tandem mass spectrometer.
500 μl of reaction media were quenched with 1,000 μL of acetonitrile at each time point and mixed. After centrifugation clear supernatants were pre-diluted with PACO media and acetonitrile at a ratio 1:25. 100 μL of the sample were transferred into a new vial, followed by addition of 10 μL (S)-(−)-Propranolol hydrochloride solution (105 μg/L) and finally vigorously mixed. 10 μL were injected onto column. Calibration and quality control samples were prepared by spiking either dasatinib or erlotinib to the PACO media. The sample was injected onto a PerfectSil Target ODS-3, 3 μm, 100×2.1 mm HPLC column (MZ-Analysentechnik, Mainz, Germany), using an Agilent 1100 (Agilent, Waldbrunn, Germany) binary pump and degasser, with a CTC PAL sampler (CTC Analytics, Zwingen, Switzerland). The column temperature was 35° C. Chromatographic separation was performed by gradient elution at a constant flow rate of 250 μL/min for 15 minutes. The gradient consisted of 20 mM NH4OAc plus 0.1% formic acid (mobile phase A) and 400 mM NH4OAc/methanol/acetonitrile 5:5:90 plus 0.1% formic acid (mobile phase B). The gradient applied was 0.0 min, 70% A/30% B; 1.5 min 70% A/30% B; 3.0 min 5% A/95% B; 11.0 min 5% A/95% B; 11.5 min 70% A/30% B and 15 min 70% A/30% B. The eluate was directed to an AB Sciex QTrap 5500 tandem mass spectrometer (AB Sciex, Darmstadt, Germany) with an electron spray ionization (ESI) source from 4 to 8 min runtime. Mass transitions of 488.1 to 401.1 for dasatinib, 394.0 to 278.1 for erlotinib and 260.1 to 116.1 for (S)-(−)-Propranolol were monitored. […] Nitrogen was produced by a high purity nitrogen generator (CMC Instruments) and applied to curtain, collision and drying gasses. De-clustering potentials, collision energy and collision exit potential were as follows: 26 V, 39 V and 12 V for dasatinib, 16 V, 43 V and 26 V for erlotinib and 61 V, 23 V and 14 V for (S)-(−)-Propranolol.

CYP3A4 and CYP3A7 [3] = details: for expression of CYP3A4 and CYP3A7 in drug-resistant cell lines: PACO2, PACO7 after 8 weeks of increasing doses; for expression of CYP3A4 and CYP3A7 in response to drug: PACO2, PACO10, PACO14, PACO9, 10 μM drug
[4] = test system: classical and QM-PDA PACO cells; experiment: Drug treatment assay, relative cell viability (CellTiterBlue); format: cell-based, human; details: for drug sensitivity after ketoconazole pre-treatment (relative cell viability, activity area): QM-PDA (PACO9) and classical (PACO2), 100 nM ketoconazole pre-treatment for 2 hours vs vehicle, 48 hours; for drug sensitivity (relative cell viability): classical and QM-PDA subtype PACO lines, 1 μM or 10 μM, after 48 hours
Experimental: as §1

CYP3A5 [5] = experiment: CYP3A5 expression in xenografts after paclitaxel treatment in vivo (qRT-PCR, immunohistochemistry); parameters: species or system mice; details: classical subtype (PACO17) xenografts; after 18 days of treatment; vs vehicle
CYP3A4 and CYP3A7 [6] = experiment: CYP3A4 and CYP3A7 expression in xenografts after paclitaxel treatment in vivo (qRT-PCR); parameters: species or system mice; details: classical subtype (PACO17) xenografts; after 18 days of treatment; vs vehicle
HepG2 cells = experiment: Paclitaxel sensitivity of hepatocellular carcinoma cells
[7] = test system: drug-resistant sublines of classical (PACO2) and QM-PDA (PACO7) cells; experiment: Drug sensitivity of drug-resistant sublines from 8-week treatment; details: for resistance of sublines to the drug used for long-term treatment: PACO2, PACO7 treated with increasing doses over 8 weeks, vs DMSO-control treated parental lines
SNU5 cells = experiment: Paclitaxel sensitivity of gastric cancer cells; format: cell-based, human; details: gastric cancer cell line SNU5
[8] = test system: tumors derived from exocrine-like PACO lines (PACO10, PACO14); experiment: In vivo drug treatment of subcutaneous shCYP3A5 or shScr PACO tumors; parameters: species or system NSG mice; details: 100 mg/kg oral gavage, 5 days on / 2 days rest, 14 days
Experimental: Tumors were established by subcutaneously injecting 5×10^5 shCYP3A5 or shScr PACO cells into female NOD.Cg-Prkdc^scid II2rg^tm1Wjl (NSG) mice (n=48) using Matrigel (2 mg/ml) in a total injection volume of 100 μl. After the tumors reached a size of approximately 200 mm^3, mice were randomized into eight groups (n=6 each) for drug administration. Erlotinib was prepared in 0.5% methylcellulose, 0.1% Tween 80 and 99.4% water for injection (WFI). Erlotinib (100 mg/kg) or vehicle were then administrated by oral gavage at 5 consecutive days followed by 2 days of rest, for duration of 14 days. Tumor volume was determined twice weekly by calliper measurements and calculated according to the formula (length×height×width)×(π/6). Tumor growth was calculated for each individual tumor by normalizing to the tumor volume at day 0. After two weeks of treatment, mice were sacrificed and tumors were resected for further analysis.

[9] = exocrine-like subtype PACO lines, 1 μM or 10 μM, after 48 hours

SMILES | CYP3A5 mRNA expression in drug-resistant cell lines (CYP3A5 [1]) | CYP3A5 expression in response to drug (CYP3A5 [1]) | CYP3A5 mRNA and protein expression in response to drug (CYP3A5 [1]) | expression of CYP3A4 and CYP3A7 in drug-resistant cell lines (CYP3A4 and CYP3A7 [3]) | expression of CYP3A4 and CYP3A7 in response to drug (CYP3A4 and CYP3A7 [3]) | drug sensitivity after CYP3A5 siRNA knockdown (relative cell viability, activity area) (exocrine-like PACO cells) | metabolism of drug in the absence of CYP3A5 (CYP3A5 [2]) | conversion of drug (disappearance of unmodified structure from supernatant) (CYP3A5 [2]) | drug sensitivity (relative cell viability) (exocrine-like PACO cells; [9]) | drug sensitivity after ketoconazole pre-treatment (relative cell viability, activity area) [4] | drug sensitivity (relative cell viability) [4] | resistance of sublines to the drug used for long-term treatment [7] | further results
Cc1nc(Nc2ncc(C(=O)Nc3c(C)cccc3Cl)s2)cc(N2CCN(CCO)CC2)n1 [dasatinib] | significantly higher | did not prompt CYP3A5 expression | strongly induced | not detectable | not induced | dramatically sensitized | completely abolished | rapid conversion |  |  |  |  | 
Nc1ccn([C@@H]2O[C@H](CO)[C@@H](O)C2(F)F)c(=O)n1 [gemcitabine] |  | did not prompt CYP3A5 expression | did not lead to the induction of CYP3A5 |  | not induced | remained unchanged |  |  | almost completely resistant | remained unchanged | sensitive |  | 
CC(=O)O[C@H]1C(=O)[C@@]2(C)[C@H]([C@H](OC(=O)c3ccccc3)[C@]3(O)C[C@H](OC(=O)[C@H](O)[C@@H](NC(=O)c4ccccc4)c4ccccc4)C(C)=C1C3(C)C)[C@]1(OC(C)=O)CO[C@@H]1C[C@@H]2O [paclitaxel] | significantly higher |  |  | not detectable |  |  |  |  |  |  |  | significantly higher resistance | CYP3A5 expression in treated xenografts (CYP3A5 [5]): upregulation of CYP3A5; expression of CYP3A4 and CYP3A7 in treated xenografts (CYP3A4 and CYP3A7 [6]): not upregulated; sensitivity to drug (HepG2 cells; HepG2 cells treated with non-targeting control siRNA): almost completely resistant; sensitivity to drug after knockdown of CYP3A5 (HepG2 cells; HepG2 cells, siRNA-mediated knockdown of CYP3A5): significantly sensitized
CC(=O)N1CCN(c2ccc(OCC3COC(Cn4ccnc4)(c4ccc(Cl)cc4Cl)O3)cc2)CC1 (stereo not drawn) [ketoconazole] |  |  |  |  |  |  |  |  |  |  |  |  | sensitization to paclitaxel by inhibition of CYP activity (SNU5 cells): strongly sensitized; sensitization to paclitaxel by inhibition of CYP function (HepG2 cells; HepG2 cells, compared with CYP3A5 knockdown): even stronger sensitization; sensitization of paclitaxel-resistant cell lines by co-treatment ([7]; paclitaxel-resistant PACO2 and PACO7 sublines, co-treatment with paclitaxel): comparable sensitization
C#Cc1cccc(Nc2ncnc3cc(OCCOC)c(OCCOC)cc23)c1 [erlotinib] | significantly higher | did not prompt CYP3A5 expression | strongly induced | not detectable | not induced | dramatically sensitized | completely abolished | rapid conversion | almost completely resistant | remained unchanged | sensitive | significantly higher resistance | drug sensitivity after ketoconazole pre-treatment (relative cell viability, activity area) (exocrine-like PACO cells; exocrine-like (PACO14), 100 nM ketoconazole pre-treatment for 2 hours vs vehicle, 48 hours): significantly more sensitive; growth of CYP3A5 knockdown tumors ([8]; shCYP3A5 tumors): completely inhibited; effect on growth of control tumors ([8]; shScr control tumors): no effect
CCc1c2c(nc3ccc(OC(=O)N4CCC(N5CCCCC5)CC4)cc13)-c1cc3c(c(=O)n1C2)COC(=O)[C@]3(O)CC [irinotecan] |  |  |  |  |  |  |  |  |  |  |  |  | drug sensitivity after knockdown of CYP3A5 (exocrine-like PACO cells): sensitive; drug sensitivity (relative cell viability) (exocrine-like PACO cells; exocrine-like subtype compared to the other two subtypes, 1 μM and 10 μM, 48 h and 7 d): highly resistant
